Literature values as cited in US20170173059A1, “Novel Combination of Naturally Occurring Compounds to Assist With Suspected Mycobacterial Infections Related to Autoimmune Conditions” (priority 2015, published 2017).
Entries after “also recorded” stand apart in the source; their conditions may differ. Read-outs that look alike come from different tables or passages of the source.

How the values were obtained:
MAP = details: bovine and human MAP strains, radiometric culture
5-lipoxygenase = molecular target: T1, 5-lipoxygenase (Homo sapiens, UniProt P09917)
T1 sequence (P09917 1-674): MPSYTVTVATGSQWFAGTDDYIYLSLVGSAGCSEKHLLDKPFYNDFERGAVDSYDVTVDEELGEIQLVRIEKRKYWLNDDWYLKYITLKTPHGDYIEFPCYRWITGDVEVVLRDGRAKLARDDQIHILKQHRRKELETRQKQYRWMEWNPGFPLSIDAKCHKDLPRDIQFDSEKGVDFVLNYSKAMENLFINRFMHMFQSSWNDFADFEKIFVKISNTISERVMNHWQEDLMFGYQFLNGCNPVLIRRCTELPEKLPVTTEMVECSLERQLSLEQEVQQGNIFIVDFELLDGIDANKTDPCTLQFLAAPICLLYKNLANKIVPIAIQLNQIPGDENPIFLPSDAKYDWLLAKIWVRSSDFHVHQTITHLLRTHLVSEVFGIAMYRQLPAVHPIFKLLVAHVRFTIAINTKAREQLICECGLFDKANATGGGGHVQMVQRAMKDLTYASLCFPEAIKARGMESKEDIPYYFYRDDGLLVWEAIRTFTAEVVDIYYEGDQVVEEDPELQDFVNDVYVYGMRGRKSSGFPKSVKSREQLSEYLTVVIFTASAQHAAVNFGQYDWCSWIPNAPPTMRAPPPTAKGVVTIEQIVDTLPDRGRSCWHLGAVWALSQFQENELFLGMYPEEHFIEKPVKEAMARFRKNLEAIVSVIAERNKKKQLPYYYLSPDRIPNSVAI

[1] = test system: patients with inflammatory bowel disease; details: Boswellia group versus sulfasalazine control group
M.Tb = details: radiometric culture
M. avium = details: radiometric culture
[2] = test system: multidrug resistance pumps (MDR pumps)
[3] = material data safety sheets / classification
[4] = test system: Mycobacterium avium subspecies paratuberculosis (MAP); details: selected strains of MAP

## CC(=O)OC/C=C(C)/C=C/C=C(C)/C=C/C1=C(C)CCCC1(C)C [retinyl acetate]
MAP
  inhibition of MAP strains in vitro: inhibitory effects; also recorded: highest inhibition of the group

## CC1(C)S[C@@H]2[C@H](NC(=O)[C@H](N)c3ccc(O)cc3)C(=O)N2[C@H]1C(=O)O [Amoxicillin]
Family of mycobacteria
  action against the family of mycobacteria: little to no action

## CC(=O)O[C@@H]1CC[C@@]2(C)[C@@H](CC[C@]3(C)[C@@H]2C(=O)C=C2[C@@H]4[C@@H](C)[C@H](C)CC[C@]4(C)CC[C@]23C)[C@@]1(C)C(=O)O [acetyl-11-keto-beta-boswellic acid]
5-lipoxygenase
  effect on 5-lipoxygenase: influenced

## Vitamin A
MAP
  inhibition of MAP strains in vitro: in vitro inhibition
MAP; listed as vitamin A
  inhibition of MAP strains in vitro: found to inhibit

## Cc1ncc([N+](=O)[O-])n1CCO [Metronidazole]
Family of mycobacteria
  action against the family of mycobacteria: little to no action

## CC[C@@]1([C@@H]2O[C@@H]([C@H]3O[C@@](O)(CO)[C@H](C)C[C@@H]3C)C[C@@H]2C)CC[C@H]([C@]2(C)CC[C@]3(C[C@H](O)[C@@H](C)[C@@H]([C@@H](C)[C@@H](OC)[C@H](C)C(=O)O)O3)O2)O1 [Monensin]
MAP
  inhibition of MAP strains in vitro: displayed inhibition of MAP

## O=C(O)c1cc(/N=N/c2ccc(S(=O)(=O)Nc3ccccn3)cc2)ccc1O [sulfasalazine]
[1]
  remission rates: 75%

## CC1=C(/C=C/C(C)=C/C=C/C(C)=C/C=C/C=C(C)/C=C/C=C(C)/C=C/C2=C(C)CCCC2(C)C)C(C)(C)CCC1 [β carotene]
MAP
  inhibition of MAP strains in vitro: inhibitory effects

## CC1=C(/C=C/C(C)=C/C=C/C(C)=C/CO)C(C)(C)CCC1 [Retinol, (2E,4E,6E,8E)-3,7-Dimethyl-9-(2,6,6-trimethyl-cyclohex-1-enyl)-nona-2,4,6,8-tetraen-1-ol]
M.Tb
  inhibition of M.Tb: strong inhibitory effect
MAP
  inhibition of MAP strains in vitro: strong inhibitory effect
M. avium
  inhibition of M. avium: strong inhibitory effect

## C=C1CC[C@H](O)C/C1=C/C=C1\CCC[C@]2(C)[C@@H]([C@H](C)CCCC(C)C)CC[C@@H]12 [Vitamin D3, cholecalciferol]
MAP
  inhibition of MAP strains in vitro: shown inhibition
Colon tissue
  anti-neoplastic activity in colon tissue: specific anti-neoplastic activity
Colon tissue; listed as D3
  anti-neoplastic activity in colon tissue: protect against neoplastic development

## COc1cc(C2Oc3cc(-c4cc(=O)c5c(O)cc(O)cc5o4)ccc3OC2CO)cc(OC)c1O (stereo not drawn) [Example 5-MHC, 5-methoxyhydnocarpin]
[2]
  multi-drug resistance pump inhibition: multi-drug resistance pump inhibitor

## CC1=C(/C=C/C(C)=C/C=C/C(C)=C\C(=O)O)C(C)(C)CCC1 [13 cis-retinoic acid]
MAP
  inhibition of MAP strains in vitro: inhibitory effects

## O=CC=Cc1ccccc1 [Cinnamaldehyde]
[3]
  safety listing (GRAS): GRAS
[4]
  inhibition of MAP in vitro: shown to inhibit

## O=C/C=C/c1ccccc1 [Trans-cinnamaldehyde]
[3]
  safety listing (GRAS): GRAS
[4]
  inhibition of MAP in vitro: shown to inhibit
